In brackets after ≈: the same amount, converted by molar mass. Read-outs that look alike come from different tables or passages of the source. Peptide text beside a SMILES is read from it. * marks the point of attachment. βNA = c1ccc2cc(N*)ccc2c1
Key:
[1] = tested on: A. baumannii ATCC 19606; experiment: MIC, microbroth dilution (EUCAST); format: cell-based, Acinetobacter baumannii
Method: (§1) Reference bacterial strains were obtained from the American Type Culture Collection (ATCC). Vancomycin resistant Enterococcus faecium (VRE 734, wastewater isolate from the Venter Laboratory Collection) was isolated on Bile Esculin agar (Oxoid, Australia) containing 6 μg/mL vancomycin and identified using MALDI-TOF mass spectrometry (Bruker, Preston, Victoria, Australia, Australian Center for Antimicrobial Resistance Ecology). The Pseudomonas aeruginosa WT PAO1 and Escherichia coli with deletions of both acrA and acrB genes encoding drug efflux pumps were obtained from the Venter laboratory stock ([Welch et al., 2010]). The protocol for microbial growth was adopted from the European Committee on Antimicrobial Susceptibility Testing (EUCAST) ([European Committee for Antimicrobial Susceptibility Testing, 2016]).
(§2) Non-fastidious bacteria and clinical isolates were maintained in Mueller Hinton (MH) broth (Acumedia, United Kingdom) supplemented with 15% (v/v) glycerol (Chem-Supply, Australia), cultured on Mueller Hinton (MH) agar (Acumedia, United Kingdom) plated and incubated at 37°C. Fastidious bacteria were maintained in Brain Heart Infusion (BHI) broth (Acumedia, United Kingdom) supplemented with 15% (v/v) glycerol at −80°C. The fastidious bacteria were cultured on MH agar plates supplemented with 5% (v/v) lysed horse blood and 3% (v/v) fetal bovine serum and incubated at 30°C in the presence of 5% CO2. Drug susceptibility assays were carried out with the non-fastidious cultures grown in cation-adjusted Mueller Hinton (CaMH) broth (Becton Dickinson, France). Streptococcus pyogenes was grown in CaMH broth supplemented with 5% (v/v) lysed horse blood and 3% (v/v) fetal bovine serum whereas Enterococcus faecium was grown in BHI broth.
(§3) The minimum inhibitory concentrations (MICs) for all six compounds were determined using the microbroth dilution protocol as per EUCAST with an inoculum of approximately […] in an exponential growth phase ([European Committee for Antimicrobial Susceptibility Testing, 2016]). Bacterial suspension, 100 μL/well, was added to 100 μL/well of drug dilutions, then incubated for 18 h at 37°C. Fastidious bacterial suspensions were instead incubated at 30°C in the presence of 5% CO2. Bacterial growth was assessed by measuring the change in A600 nm between time 0 and 18 h (Cytation5® Cell Imaging Multi-Mode Reader, Bio-Tek®). Levofloxacin was used as the positive control. Assays were completed in duplicate in at least three independent experiments.

[2] = tested on: A. baumannii XDR UW 5075; experiment: MIC, microbroth dilution (EUCAST); format: cell-based, Acinetobacter baumannii
Method: as §1, §2, §3

[3] = tested on: E. coli FtsZ; set-up: method as in Domadia et al., 2007; conditions: ref Domadia et al., 2007, read-out: IC50, GTPase activity; cited from earlier work
[4] = tested on: E. coli FtsZ; conditions: E. coli FtsZ; ref Domadia et al., 2007; cited from earlier work
[5] = tested on: E. coli; conditions: cited from earlier work
[6] = tested on: A. baumannii ATCC 19606; experiment: Cell division phenotype by light microscopy; format: cell-based, Acinetobacter baumannii; conditions: divin at 64 μg/mL
Method: Morphological changes of bacteria when exposed to the compounds were assessed microscopically using the assay as previously described ([Chai et al., 2020]). Eppendorf® tubes were set up with A. baumannii ATCC 19606 as described for the time-kill assays. At time 0, 1, 3, 6, and 18 h, an aliquot of the bacterial suspension (1 μL) was transferred onto a glass slide and viewed under a light microscope (Olympus CX33®) at 100 × magnification. Representative images were captured using JENOPTIK GRYPHAX® imaging.
A 1 μL aliquot was taken out at varying timepoints (0, 1, 3, 6, and 18 h) and imaged by light microscopy. The images for 6 h are depicted here. […] The white arrow indicates “grooving” site, an indication of where separation of daughter cells should take place. Scale bar is 50 μm.
Four of the compounds (LXC 31, 33, 35 and 41) were tested at 1× and 2× their minimum inhibitory concentration (MIC) whereas LXC 36 and 43 were tested at 2× and 4× MIC. The phenotypic changes in A. baumannii morphology were analysed under a light microscope (100× magnification) at time 0, 1, 3, 6 and 18 h. Scale bar is 50 µm.

[7] = tested on: Methicillin resistant Staphylococcus aureus; experiment: Antibacterial activity (MIC), microbroth dilution; format: cell-based; conditions: ATCC 43300 / MRSA; Methicillin resistant Staphylococcus aureus (MRSA ATCC 43300); unit inferred; read-out: Antibacterial activity (MIC)
Method: as §1, §2, §3

[8] = tested on: Pseudomonas aeruginosa WT PAO1; experiment: Antibacterial activity (MIC), microbroth dilution; format: cell-based; conditions: Pseudomonas aeruginosa WT PAO1; unit inferred; read-out: Antibacterial activity (MIC)
Method: as §1, §2, §3

[9] = tested on: Klebsiella pneumoniae ATCC 33495; experiment: Antibacterial activity (MIC), microbroth dilution; format: cell-based; conditions: ATCC33495; Klebsiella pneumoniae ATCC 33495; unit inferred; read-out: Antibacterial activity (MIC)
Method: as §1, §2, §3

[10] = tested on: Klebsiella pneumoniae ATCC 13883; experiment: Antibacterial activity (MIC), microbroth dilution; format: cell-based; conditions: ATCC13883; Klebsiella pneumoniae ATCC 13883; unit inferred; read-out: Antibacterial activity (MIC)
Method: as §1, §2, §3

[11] = tested on: Escherichia coli WT BW 25113; experiment: Antibacterial activity (MIC), microbroth dilution; format: cell-based
Method: as §1, §2, §3

[12] = tested on: Pseudomonas aeruginosa ATCC 27853; experiment: Antibacterial activity (MIC), microbroth dilution; format: cell-based; conditions: ATCC27853; Pseudomonas aeruginosa ATCC 27853; unit inferred; read-out: Antibacterial activity (MIC)
Method: as §1, §2, §3

[13] = tested on: Klebsiella pneumoniae ATCC 4352; experiment: Antibacterial activity (MIC), microbroth dilution; format: cell-based; conditions: ATCC4352; Klebsiella pneumoniae ATCC 4352; unit inferred; read-out: Antibacterial activity (MIC)
Method: as §1, §2, §3

[14] = tested on: Enterobacter aerogenes ATCC 13408; experiment: Antibacterial activity (MIC), microbroth dilution; format: cell-based; conditions: Klebsiella aerogenes, ATCC13408; Enterobacter aerogenes ATCC 13408; unit inferred; read-out: Antibacterial activity (MIC)
Method: as §1, §2, §3

[15] = tested on: Escherichia coli ATCC 35218; experiment: Antibacterial activity (MIC), microbroth dilution; format: cell-based; conditions: ATCC35218; Escherichia coli ATCC 35218; unit inferred; read-out: Antibacterial activity (MIC)
Method: as §1, §2, §3

[16] = tested on: human red blood cells; experiment: Hemolysis assay; format: cell-based
Method: The hemolysis assay was performed using fresh human red blood cells (RBCs). […] These were performed in quadruplicate. Thereafter, 192 μL RBCs were added into all wells and the plates were incubated at 37°C under constant shaking (100 rpm) for 1 h. RBCs were precipitated by centrifugation of the plates (1,000× g for 3 min). An aliquot (100 μL) of each supernatant was transferred into a new 96-microwell plate and the A450 nm was determined using a PerkinElmer Enspire® plate reader. The fraction of intact RBC for each sample was determined as fraction of the intact RBCs for the sample without the addition of compounds (set at 100%) and plotted as a function of compound concentration.
A 1% (v/v) Triton X-100 was used to indicate complete RBC lysis (^‡). […] The assays were performed in quadruplicates. The plates were incubated at 37°C while constantly shaking at 100 rpm for 1 h. Intact RBCs were removed by centrifugation and the presence of hemolytic products in the supernatant were determined by measuring the absorbance at A450 nm. The results are presented in mean ± SEM. Statistical analysis was performed using one-way ANOVA and the asterisks (*) represent statistical significance (*p < 0.05; **p < 0.005; ***p < 0.0005; ****p < 0.0001).

[17] = tested on: A. baumannii ATCC 19606 and UW 5075; experiment: Outer membrane permeabilisation, nitrocefin hydrolysis; format: cell-based, Acinetobacter baumannii; conditions: PAβN at 100 or 200 µg/mL, nitrocefin hydrolysis at 490 nm
Method: A. baumannii ATCC 19606 and the extensively resistant strain UW 5075 were assayed for permeabilisation of the outer membrane by the efflux pump inhibitor PAβN. Nitrocefin was added to the cells that received no treatment (black circles), cells treated with the outer membrane permeabilizer polymyxin B (PMB, red squares) or PAβN at 100 µg/mL (light blue triangles) or 200 µg/mL (dark blue triangles). Nitrocefin hydrolysis by the periplasmic β-lactamase was observed as an increase in absorbance at 490 nm. Representative traces are shown from triplicate experiments performed on different days. Symbols represent the mean of triplicate readings ± SEM.

[18] = tested on: Streptococcus pyogenes ATCC 10389; experiment: Antibacterial activity (MIC), microbroth dilution; format: cell-based; conditions: ATCC10389; Streptococcus pyogenes ATCC 10389; unit inferred; read-out: Antibacterial activity (MIC)
Method: as §1, §2, §3

[19] = tested on: Streptococcus pneumoniae (type 3, mucoid strain) ATCC 6303; experiment: Antibacterial activity (MIC), microbroth dilution; format: cell-based; conditions: ATCC6303; Streptococcus pneumoniae ATCC 6303; unit inferred; read-out: Antibacterial activity (MIC)
Method: as §1, §2, §3

[20] = Acinetobacter baumannii, ATCC19606, A. baumannii ATCC 19606, 18 h, 37°C, read-out: MIC
[21] = Acinetobacter baumannii, XDRUW5075, 18 h
[22] = WTBW25113, Escherichia coli WT BW 25113, unit inferred, read-out: Antibacterial activity (MIC)

## CC1(C)S[C@@H]2[C@H](NC(=O)[C@H](N)c3ccc(O)cc3)C(=O)N2[C@H]1C(=O)O [Amoxycillin, reference compound]
[1]; [20]
  MIC: 64 µg/mL (≈ 175 µM)
[2]; [21]
  MIC: 1020 µg/mL (≈ 2800 µM)

## O=C/C=C/c1ccccc1 [cinnamaldehyde]
[3]
  IC50: 5.8 µM
[4]
  ED50, self-polymerization: 6.9 µM
[5]; ref Domadia et al., 2007, Li et al., 2015a
  MIC: 1 mg/mL (≈ 7570 µM)
[5]; ref Domadia et al., 2007
  Mechanism of action (bacteriostatic): bacteriostatic

## Cc1nc2ccccc2n1CCC(=O)NN=Cc1c(O)ccc2ccccc12 [divin, reference compound]
[6]
  Cell morphology: elongated cell shape

## Colistin [reference compound]
[1]; A. baumannii ATCC 19606, 18 h, 37°C
  MIC: 2 µg/mL
[2]; A. baumannii XDR UW 5075, 18 h, 37°C
  MIC: 2 µg/mL

## CO[C@H]1/C=C/O[C@@]2(C)Oc3c(C)c(O)c4c(O)c(c(/C=N/N5CCN(C)CC5)c(O)c4c3C2=O)NC(=O)/C(C)=C\C=C\[C@H](C)[C@H](O)[C@@H](C)[C@@H](O)[C@@H](C)[C@H](OC(C)=O)[C@@H]1C [RIF, rifampicin, reference compound]
[7]
  MIC: 32 µg/mL (≈ 38.9 µM)
[8]
  MIC: 32 µg/mL (≈ 38.9 µM)
[9]
  MIC: 32 µg/mL (≈ 38.9 µM)
[10]
  MIC: 8 µg/mL (≈ 9.72 µM)
[11]; [22]
  MIC: > 16 µg/mL
[12]
  MIC: 32 µg/mL (≈ 38.9 µM)
[13]
  MIC: > 64 µg/mL
[14]
  MIC: 16 µg/mL (≈ 19.4 µM)
[15]
  MIC: > 16 µg/mL

## Triton X-100 [reference compound]
[16]
  Hemolytic activity: completely disrupt the red blood cells

## C[C@@H](O)[C@H]1C(=O)N2C(C(=O)O)=C(SCCN=CN)C[C@H]12 [Imipenem, reference compound]
[1]; [20]
  MIC: 1 µg/mL (≈ 3.34 µM)
[2]; [21]
  MIC: 128 µg/mL (≈ 428 µM)

## NC(N)=NCCC[C@H](NC(=O)[C@@H](N)Cc1ccccc1)C(=O)Nc1ccc2ccccc2c1 [PAβN, phenylalanine arginine-β-naphthylamide] (H-Phe-Arg-βNA)
[17]
  Damage of the bacterial outer membrane: does not damage the bacterial outer membrane

## CNC(C)C1CCC(N)C(OC2C(N)CC(N)C(OC3OCC(C)(O)C(NC)C3O)C2O)O1 (stereo not shown) [Gentamicin, reference compound]
[1]; Acinetobacter baumannii, ATCC19606, 18 h
  MIC: 16 µg/mL (≈ 33.5 µM)
[2]; [21]
  MIC: > 1020 µg/mL

## C[C@H]1COc2c(N3CCN(C)CC3)c(F)cc3c(=O)c(C(=O)O)cn1c23 [Levofloxacin, reference compound]
[1]; [20]
  MIC: 0.5 µg/mL (≈ 1.38 µM)
[2]; [21]
  MIC: 8 µg/mL (≈ 22.1 µM)
[7]
  MIC: 1 µg/mL (≈ 2.77 µM)
[18]
  MIC: 1 µg/mL (≈ 2.77 µM)
[8]
  MIC: 0.5 µg/mL (≈ 1.38 µM)
[9]
  MIC: 1 µg/mL (≈ 2.77 µM)
[10]
  MIC: 1 µg/mL (≈ 2.77 µM)
[11]; Escherichia coli, WTBW25113, read-out: Antibacterial activity (MIC)
  MIC: 0.25 µg/mL (≈ 0.692 µM)
[19]
  MIC: 1 µg/mL (≈ 2.77 µM)
[12]
  MIC: 1 µg/mL (≈ 2.77 µM)
[13]
  MIC: 1 µg/mL (≈ 2.77 µM)
[14]
  MIC: 1 µg/mL (≈ 2.77 µM)
[15]
  MIC: 0.004 µg/mL (≈ 0.0111 µM)

## Cc1onc(-c2ccccc2)c1C(=O)N[C@@H]1C(=O)N2[C@@H]1SC(C)(C)[C@@H]2C(=O)O [OXA, oxacillin, reference compound]
[7]
  MIC: 16 µg/mL (≈ 39.9 µM)
[8]
  MIC: > 64 µg/mL
[9]
  MIC: > 64 µg/mL
[10]
  MIC: > 64 µg/mL
[11]; [22]
  MIC: > 64 µg/mL
[12]
  MIC: > 64 µg/mL
[13]
  MIC: > 64 µg/mL
[14]
  MIC: > 16 µg/mL
[15]
  MIC: > 64 µg/mL

From paper PMC9465178, “Cinnamaldehyde derivatives act as antimicrobial agents against Acinetobacter baumannii through the inhibition of cell division” (Frontiers in Microbiology, 2022)
